Results published in patent publication US20120009131A1, “METHOD FOR PREVENTING OR TREATING AMYLOID BETA PEPTIDE-ASSOCIATED DISEASES OR CONDITIONS, AND METHOD FOR INHIBITING FORMATION, ACCUMULATION OR AGGREGATION OF AMYLOID BETA PEPTIDES” (Sinphar Tian-Li Pharmaceutical Co., Ltd. (Hangzhou), priority 2010, published 2012).
Marks after values point to notes of the source that are not given here.

Legend:
Human Aβ1-42 = Human Aβ1-42 (Homo sapiens, UniProt P05067); test: Aβ1-42 oligomerization (thioflavin T fluorescence); format: biochemical; details: 50 μg/ml, 24 hours
Human Aβ1-42, sequence (P05067 672-713 limits assumed): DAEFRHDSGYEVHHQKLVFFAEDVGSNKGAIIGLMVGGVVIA
Description: Dried Human Aβ1-42 was taken out from the refrigerator and equilibrated to room temperature. Aβ1-42 was dissolved in 1,1,1,3,3,3-Hexa-fluro-2-propanol (HFIP) to a concentration of 1 mM, and was then placed at room temperature for one hour. The Aβ1-42/HFIP solution was aliquoted by Hamilton syringe, and was then dried under a stream of nitrogen gas, followed by storing at a temperature of −20[…]. Aβ1-42 treated with HFIP was dissolved in PBS, and was vibration-incubated with treatment of each test sample at a concentration of 50 μg/ml and at 4[…] for 24 hours to prepare Aβ1-42 oligomers. The level of Aβ1-42 oligomerization was analyzed by thioflavin T fluorescence (Ex=450 nm, Em=482 nm).

[1] = system: extracellular Aβ1-40 accumulation in SH-SY5Y cells; test: Effect on extracellular Aβ1-40 accumulation (Human Aβ1-40 immunoassay of the medium); format: cell-based; details: 50 μg/ml, 24 hours, mean±SD
Description: (§1) Wild-type human neuroblastoma cells (SH-SY5Y) were cultured in Eagle's Minimum essential Medium (EMEM)/Ham's F12 medium (1:1 mixture) (containing 10% FBS, 10 units/ml penicillin, 10 μg/ml Streptomycin). Wild-type mouse neuroblastoma Neuro-2a cells were cultured in minimum essential medium (MEM) (containing 10% FBS, 10 units/ml penicillin, 10 μg/ml Streptomycin).
The medium of the wild-type human neuroblastoma SH-SY5Y cells in Example 1 were switched into chemical defined medium (EMEM/F12 medium (Cat. No. 12500-062), Hepes 5 mM, Glucose 0.6%, NaHCO3 3 mM, Glutamine 2.5 mM, Insulin 25 μg/ml, Transferin 100 μg/ml, Progestrone 20 nM, Putrescine 60 μM, Sodium selenite 30 nM, Heparin 2 μg/ml). Each well contained 1×10^5 SH-SY5Y cells in 300 μl of culture medium. Thirty minutes later, each well was treated with the test samples A-D given in Table 1 respectively at a concentration of 50 μg/ml for 24 hours. After that, the level of Aβ1-40 in the medium of each well was analyzed by Human Aβ1-40 immunoassay kits (Catalog #KHB3482 Invitrogen).
Human neuroblastoma SH-SY5Y cells cause extracellular accumulation of Aβ. […] The results were shown in mean±standard deviation (SD) form. Significant difference between the Vehicle control group and the test sample-treated groups were indicated by *., P<0.05, *.*, P<0.01, and. ***., P<0.001.

[2] = system: SD rats infused intracerebroventricularly with Aβ1-42; test: Acetylcholine and choline levels in brain cortex and hippocampus of rats; format: in vivo, rat; details: oral
Description: (§2) The rats were anesthetized for implantation of an infusion cannula into the left cerebral ventricle thereof. After sewing up the incisions, the rats were returned to their cages. FIG. 7 illustrates the experimental schedule for animal studies. The exploration behavior tests were carried out on day 7, the passive avoidance learning tests were carried out on day 8 and 9, the water maze tests were carried on day 10 to 13, and the probe tests were carried out on day 14, after the start of Aβ1-42 infusion. […] The test samples were administered orally to the rats, 1 hour before the tests (i.e., the exploration behavior tests, the passive avoidance learning tests, and the water maze tests) throughout the experimental period. […] All the test samples were prepared freshly with deionized distilled water (ddH2O) every day, and were administered orally by stomach tube.
(§3) Significant difference between the Aβ1-42 control group and the other experimental groups were indicated by *., P<0.05, *.*, P<0.01, and. ***., P<0.001.
(§4) After the water maze performance tests, all rats were decapitated and their brains were rapidly removed from the skull. […]

[3] = system: Aβ1-42 plaques in rat brain; test: Immunohistochemical staining for Aβ1-42 in the hippocampus section of rat's brain; format: in vivo; details: oral
Excerpt: In the following Examples 7 to 11 illustrated below, male Sprague-Dawley (SD) rats, weighed 250-300 gm, were obtained from BioLASCO Taiwan Co. Ltd. The SD rats were infused intracerebroventricularly with Aβ1-42 to cause neuronal damage, affecting their memory and learning ability, and leading to form senile plaque-like aggregates in the rat's brain, being used as an animal model of Alzheimer's disease. Alzheimer's disease animal model induced by Aβ can be referred to, for example, Nabeshima et al. (Neuroscience Letters (1994) 170: 63-66)(British Journal of Pharmacology (1999) 126: 235-244).
The rats were anesthetized for implantation of an infusion cannula into the left cerebral ventricle thereof. After sewing up the incisions, the rats were returned to their cages. FIG. 7 illustrates the experimental schedule for animal studies. The exploration behavior tests were carried out on day 7, the passive avoidance learning tests were carried out on day 8 and 9, the water maze tests were carried on day 10 to 13, and the probe tests were carried out on day 14, after the start of Aβ1-42 infusion. The Sham group was treated with TFA solution (64.9% sterile ddH2O, 35% acetonitrile, 0.1% trifluoroacetic acid), and the other experimental groups were treated with 0.5 μl of Aβ1-42 dissolved in TFA solution per hour, corresponding to 300 pmol/12 μl of Aβ1-42 (Tocris 1428; MW: 4514.08) per day. The test samples were administered orally to the rats, 1 hour before the tests (i.e., the exploration behavior tests, the passive avoidance learning tests, and the water maze tests) throughout the experimental period. […] All the test samples were prepared freshly with deionized distilled water (ddH2O) every day, and were administered orally by stomach tube.
All rats were sacrificed and their brains were removed, cut into slices and stained. Neurotransmitters were also tested.
After the water maze performance tests, all rats were decapitated and their brains were rapidly removed from the skull, and then immunohistochemical staining for Aβ1-42 in the hippocampus section of their brains. […]

[4] = system: SD rats infused intracerebroventricularly with Aβ1-42; test: Water maze spatial performance and probe tests in Aβ1-42-infused rats; format: in vivo, rat; details: oral
Description: as §2, §3

[5] = system: SD rats infused intracerebroventricularly with Aβ1-42; test: Dopamine (DA) and metabolites DOPAC and HVA levels in brain cortex and hippocampus of rats; format: in vivo, rat; details: for DA level / DOPAC level / HVA level: mean±SD
Description: as §2, §3
After the water maze performance tests, all rats were decapitated and their brains were rapidly removed from the skull. According to Glowinski and Iversen, the brain cortex and hippocampus were separated, and then each cortex and hippocampus were weighed and were homogenized by addition of 50 mM Na-phosphate buffer (pH 7.8) for analyzing the concentrations of neurotransmitters and the levels of enzymes.

[6] = system: SD rats infused intracerebroventricularly with Aβ1-42; test: Exploration behavior test in Aβ1-42-infused rats; format: in vivo, rat; details: oral
Description: as §2, §3

acetylcholinesterase = test: Acetylcholinesterase activities in brain cortex and hippocampus of rats; format: in vivo, rat; details: oral; D 2.5 and 5 mg/kg, Aricept 0.75 mg/kg
Description: as §2, §3, §4

[7] = system: Aβ-degrading enzymes released by Neuro-2a cells; test: Effect on extracellular Aβ1-40 degradation in Neuro-2a conditioned medium; format: biochemical, mouse; details: Neuro-2a medium, 50 μg/ml, 10 ng synthetic Aβ1-40, 24 hours
Description: as §1
Mouse neuroblastoma Neuro-2a cells will release Aβ-degrading enzymes in the chemical defined medium, but will not produce detectable amount of Aβ in the medium. The Neuro 2a cells were incubated in the medium for 24 hours, and then the medium were drawn out without cells. The medium were individually treated with the test samples A-D at a concentration of 50 μg/ml and 10 ng synthetic Aβ1-40 for 24 hours, and then the effects of each test sample on promoting the enzymes in the medium were examined. The remaining Aβ1-40 amount of each well was analyzed by Human Aβ1-40 Immunoassay kits (Catalog #KHB3482 Invitrogen), expressing as percentage, as compared with the Vehicle control group.

[8] = system: SD rats infused intracerebroventricularly with Aβ1-42; test: Passive avoidance response test in Aβ1-42-infused rats; format: in vivo, rat; details: oral
Description: as §2, §3

[9] = D 2.5 and 5 mg/kg, Aricept 0.75 mg/kg
[10] = brain hippocampus, oral 2.5 mg/kg
[11] = brain hippocampus, oral 5 mg/kg

`C[C@@H]1O[C@@H](O[C@@H]2[C@@H](O)[C@H](OCCc3ccc(O)c(O)c3)O[C@H](CO)[C@H]2OC(=O)/C=C/c2ccc(O)c(O)c2)[C@H](O)[C@H](O)[C@H]1O` [Test sample C, Acteoside, reference compound] was tested, and the “activity on inhibiting Aβ1-42 oligomerization (in words)” value (Human Aβ1-42) was “possess activities on inhibiting Aβ1-42 oligomerization” and the “reduction of the level of Aβ1-40 in the medium in comparison with the Vehicle control group” value [1] was “about 20%”.
With Isoacteoside [Test sample D] the “activity on inhibiting Aβ1-42 oligomerization (in words)” value (Human Aβ1-42) was “possess activities on inhibiting Aβ1-42 oligomerization”, the “inhibition of Aβ1-42 oligomerization” value (Human Aβ1-42) was 98.93±1.70% and the “acetylcholine levels in the brain cortex and hippocampus” value ([2]; 5 mg/kg) was “particularly potent”. For the same molecule, the “acetylcholine levels in the brain cortex and hippocampus” value [2, 9] was “reverse the decrease in acetylcholine levels”, the “plaques found in the brain of the rat” value ([3]; 2.5 mg/kg) was “few plaques” and the “plaques found in the brain of the rat” value ([3]; 5 mg/kg) was “almost no plaques”. The “plaques in the brain, compared with Aricept-treated rat” value ([3]; D 2.5 and 5 mg/kg vs Aricept 0.75 mg/kg) was “less than that in the brain of the rat treated with Aricept”, the “reduction of the level of Aβ1-40 in the medium in comparison with the Vehicle control group” value [1] was “about 47.44±16.62%” and the “water maze spatial performance and probe test, compared with Aricept 0.75 mg/kg” value ([4]; 5 mg/kg) was “shows better effects than Aricept 0.75 mg/kg”. For the same molecule, the “deficits of the water maze spatial performance and the probe test” value [4, 9] was “can be improved”, the DA level ([5]; brain cortex, oral 2.5 mg/kg) was 2.67 ± 0.43 and the DOPAC level ([5]; brain cortex, oral 2.5 mg/kg) was 12.53 ± 3.33. The HVA level ([5]; brain cortex, oral 2.5 mg/kg) was 2.92 ± 0.58, the DA level ([5]; brain cortex, oral 5 mg/kg) was 3.84 ± 0.47* and the DOPAC level ([5]; brain cortex, oral 5 mg/kg) was 13.80 ± 3.03. For the same molecule, the HVA level ([5]; brain cortex, oral 5 mg/kg) was 2.74 ± 0.69, the DA level [5, 10] was 5.41 ± 1.30*** and the DOPAC level [5, 10] was 4.98 ± 1.15. For the same molecule, the HVA level [5, 10] was 3.68 ± 0.46, the DA level [5, 11] was 4.07 ± 0.59*** and the DOPAC level [5, 11] was 4.13 ± 0.45. For the same molecule, the HVA level [5, 11] was 3.29 ± 0.25, the “DA levels in the cortex and hippocampus (in words)” value ([5]; oral, D 2.5 and 5 mg/kg, Aricept 0.75 mg/kg) was “reverse the decrease in DA levels” and the “exploratory activities, compared with Aricept 0.75 mg/kg” value ([6]; 5 mg/kg) was “shows better effects than Aricept 0.75 mg/kg”. For the same molecule, the “exploratory activities of the rats” value ([6]; D 2.5 and 5 mg/kg, Aricept 0.75 mg/kg, day 7) was “effective in improving the exploratory activities of the rats”, the “acetylcholinesterase activities in the brain cortex and hippocampus” value (acetylcholinesterase) was “reverse the increase in acetylcholinesterase activities” and the “Aβ1-40 degradation (remaining Aβ1-40 amount)” value [7] was “does not accelerate Aβ degradation”. The “passive avoidance response, compared with Aricept 0.75 mg/kg” value ([8]; 2.5 mg/kg) was “shows equivalent effect with Aricept 0.75 mg/kg”, the “passive avoidance response, compared with Aricept 0.75 mg/kg” value ([8]; 5 mg/kg) was “shows better effects than Aricept 0.75 mg/kg” and the “passive avoidance learning impairment (step-through latency)” value [8, 9] was “reverse the passive avoidance learning impairment”.
In the case of `C[C@@H]1O[C@@H](O[C@@H]2[C@@H](O)[C@H](OCCc3ccc(O)c(O)c3)O[C@H](CO[C@@H]3O[C@H](CO)[C@@H](O)[C@H](O)[C@H]3O)[C@H]2OC(=O)/C=C/c2ccc(O)c(O)c2)[C@H](O)[C@H](O)[C@H]1O` [Test sample B, Echinacoside, reference compound], the “activity on inhibiting Aβ1-42 oligomerization (in words)” value (Human Aβ1-42) is reported as “possess activities on inhibiting Aβ1-42 oligomerization”.
